Measurements as given in the supplement of paper PMC10307832.

Experiments:
Assay in all cases: relative viability (nuclei count vs DMSO), 5 days (fraction); higher = more cells survive
BAY61-3606 + Linsitinib = compound: COC1=C(C=C(C=C1)C2=CC3=NC=CN3C(=N2)NC4=C(C=CC=N4)C(=O)N)OC [BAY61-3606] + C[C@]1(O)C[C@@H](c2nc(-c3ccc4ccc(-c5ccccc5)nc4c3)c3c(N)nccn32)C1 [Linsitinib] (partner 1 µM)
How it was run: (§1)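 Relative viability is defined as nuclei in treated wells over nuclei in vehicle wells. Duplicate plates were run and medians reported. Lung cancer cell lines in 1536-well plates were dosed by pin tool one day after seeding, with one drug or with a fixed anchor-drug dose plus five library-drug doses (not always all listed) in √10 steps, and nuclei were counted after 5 days.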

BAY61-3606 + Dasatinib = compound: COC1=C(C=C(C=C1)C2=CC3=NC=CN3C(=N2)NC4=C(C=CC=N4)C(=O)N)OC [BAY61-3606] + Cc1nc(Nc2ncc(C(=O)Nc3c(C)cccc3Cl)s2)cc(N2CCN(CCO)CC2)n1 [Dasatinib] (partner 0.075 µM)
How it was run: as §1

BAY61-3606 + Pemetrexed = compound: COC1=C(C=C(C=C1)C2=CC3=NC=CN3C(=N2)NC4=C(C=CC=N4)C(=O)N)OC [BAY61-3606] + Nc1nc2[nH]cc(CCc3ccc(C(=O)N[C@@H](CCC(=O)O)C(=O)O)cc3)c2c(=O)[nH]1 [Pemetrexed] (partner 0.2 µM)
How it was run: as §1

Doxorubicin + Lapatinib = compound: COc1cccc2c1C(=O)c1c(O)c3c(c(O)c1C2=O)C[C@@](O)(C(=O)CO)C[C@@H]3O[C@H]1C[C@H](N)[C@H](O)[C@H](C)O1 [Doxorubicin] + CS(=O)(=O)CCNCc1ccc(-c2ccc3ncnc(Nc4ccc(OCc5cccc(F)c5)c(Cl)c4)c3c2)o1 [Lapatinib] (partner 2 µM)
How it was run: as §1

Cell Line	relative viability (BAY61-3606 + Linsitinib; first compound 0.02 µM)	relative viability (BAY61-3606 + Linsitinib; first compound 0.06325 µM)	relative viability (BAY61-3606 + Linsitinib; first compound 0.2 µM)	relative viability (BAY61-3606 + Linsitinib; first compound 0.6325 µM)	relative viability (BAY61-3606 + Linsitinib; first compound 2 µM)	relative viability (BAY61-3606 + Dasatinib; first compound 0.02 µM)	relative viability (BAY61-3606 + Dasatinib; first compound 0.06325 µM)	relative viability (BAY61-3606 + Dasatinib; first compound 0.2 µM)	relative viability (BAY61-3606 + Dasatinib; first compound 0.6325 µM)	relative viability (BAY61-3606 + Dasatinib; first compound 2 µM)	relative viability (BAY61-3606 + Pemetrexed; first compound 0.02 µM)	relative viability (BAY61-3606 + Pemetrexed; first compound 0.06325 µM)	relative viability (BAY61-3606 + Pemetrexed; first compound 0.2 µM)	relative viability (BAY61-3606 + Pemetrexed; first compound 0.6325 µM)	relative viability (BAY61-3606 + Pemetrexed; first compound 2 µM)	relative viability (Doxorubicin + Lapatinib; first compound 0.001 µM)	relative viability (Doxorubicin + Lapatinib; first compound 0.003162 µM)	relative viability (Doxorubicin + Lapatinib; first compound 0.01 µM)	relative viability (Doxorubicin + Lapatinib; first compound 0.03162 µM)	relative viability (Doxorubicin + Lapatinib; first compound 0.1 µM)
NCI-H2023	0.703	0.681	0.779	0.715	0.557	0.639	0.601	0.554	0.525	0.334	0.263	0.257	0.212	0.246	0.157	0.226	0.734	0.252	0.134	0.11
HCC-15	0.964	0.988	0.814	0.876	0.725	0.696	0.59	0.592	0.551	0.483	0.235	0.216	0.233	0.213	0.204	0.661	0.91	0.657	0.563	0.552
HCC-78	0.742	0.456	0.598	0.535	0.459	0.363	0.362	0.379	0.48	0.694	0.864	0.951	0.868	0.889	0.825	0.752	0.723	0.77	0.673	0.466
COR-L23	1.02	1.07	0.957	0.903	0.641	0.609	0.548	0.504	0.467	0.316	0.198	0.203	0.2	0.202	0.195	0.955	1.19	0.921	0.241	0.14
HCC-827	0.971	0.959	0.973	1.05	0.966	0.332	0.328	0.363	0.315	0.24	0.274	0.295	0.274	0.254	0.262	0.322	0.322	0.182	0.201	0.22
NCI-H1355	0.798	0.8	0.799	0.891	0.678	0.68	0.627	0.65	0.662	0.67	1.1	1.03	0.977	1.11	0.924	0.952	1.08	0.963	0.888	0.856
RERF-LC-KJ	0.844	0.918	0.852	0.886	0.807	0.843	0.856	0.702	0.886	0.517	0.467	0.463	0.501	0.484	0.432	0.905	0.817	0.863	0.759	0.815
NCI-H2126	0.757	0.687	0.742	0.749	0.691	0.676	0.599	0.573	0.567	0.356	0.708	0.654	0.639	0.713	0.58	0.766	0.796	0.76	0.728	0.773
BEN	1.04	0.805	1.06	1.01	0.793	0.342	0.309	0.296	0.318	0.321	0.959	0.627	0.727	0.748	0.724	1.01	0.608	0.697	0.474	0.644
LCLC-97TM1	0.182		0.187	0.18	0.175	0.722	0.98	1.03	0.804	0.864	0.188	0.165	0.195	0.145	0.166	1.13	0.917	0.847	0.63	0.579
EKVX	1.12	0.981	0.99	0.946	0.935	0.602	0.455	0.436	0.58	0.297	0.439	0.368	0.401	0.495	0.346	0.233	0.234	0.228	0.188	0.182
PC-14	1.05	1.04	0.916	0.968	0.826	0.269	0.249	0.264	0.287	0.176	0.159	0.136	0.134	0.137	0.148	0.353	0.351	0.293	0.286	0.302
NCI-H1651	0.908	0.909	0.91	1.12	0.823	0.379	0.459	0.387	0.32	0.318	0.608	0.544	0.492	0.537	0.531	0.784	0.729	0.475	0.166	0.129
NCI-H2087	0.883	1.13	0.905	1.16	0.732	1.01	0.858	0.906	0.79	0.635	0.578	0.685	0.682	0.625	0.588	0.749	1.01	0.815	0.759	0.529
NCI-H1944	1.31	1.17	1.1	1.13	1.27	0.216	0.205	0.232	0.21	0.193	0.677	0.565	0.644	0.583	0.518	0.872	0.827	0.857	0.693	0.841
COR-L 105	1.11	1.02	0.926	0.812	0.616	0.325	0.332	0.339	0.333	0.203	1.24	1.13	1.11	0.994	0.968	0.372	0.358	0.321	0.287	0.283

Cell Line	relative viability (BAY61-3606 + Linsitinib; first compound 0.02 µM)	relative viability (BAY61-3606 + Linsitinib; first compound 0.06325 µM)	relative viability (BAY61-3606 + Linsitinib; first compound 0.2 µM)	relative viability (BAY61-3606 + Linsitinib; first compound 0.6325 µM)	relative viability (BAY61-3606 + Linsitinib; first compound 2 µM)	relative viability (BAY61-3606 + Dasatinib; first compound 0.02 µM)	relative viability (BAY61-3606 + Dasatinib; first compound 0.06325 µM)	relative viability (BAY61-3606 + Dasatinib; first compound 0.2 µM)	relative viability (BAY61-3606 + Dasatinib; first compound 0.6325 µM)	relative viability (BAY61-3606 + Dasatinib; first compound 2 µM)	relative viability (BAY61-3606 + Pemetrexed; first compound 0.02 µM)	relative viability (BAY61-3606 + Pemetrexed; first compound 0.06325 µM)	relative viability (BAY61-3606 + Pemetrexed; first compound 0.2 µM)	relative viability (BAY61-3606 + Pemetrexed; first compound 0.6325 µM)	relative viability (BAY61-3606 + Pemetrexed; first compound 2 µM)	relative viability (Doxorubicin + Lapatinib; first compound 0.001 µM)	relative viability (Doxorubicin + Lapatinib; first compound 0.003162 µM)	relative viability (Doxorubicin + Lapatinib; first compound 0.01 µM)	relative viability (Doxorubicin + Lapatinib; first compound 0.03162 µM)	relative viability (Doxorubicin + Lapatinib; first compound 0.1 µM)
NCI-H1437	1.1	1.1	1.01	1.03	0.813	0.382	0.355	0.391	0.382	0.403	0.333	0.342	0.33	0.31	0.346	0.772	0.836	0.61	0.278	0.209
H3255	0.989	0.987	1.07	1.18	0.854	0.411	0.304	0.352	0.335	0.462	0.587	0.546	0.598	0.626	0.593	0.261	0.262	0.247	0.259	0.228
NCI-H2009	1.19	1.28	1.18	1.18	1.07	0.318	0.288	0.281	0.233	0.142	1	1.01	1.02	0.918	0.91	0.912	0.245	0.763	0.376	0.283
NCI-H1755	1.06	1.04	1.03	0.981	0.974	0.415	0.412	0.432	0.397	0.317	0.488	0.4	0.411	0.419	0.562	0.962	1.05	0.991	1.07	0.998
LU99A	0.544	0.548	0.575	0.501	0.318	0.561	0.509	0.505	0.51	0.303	0.175	0.149	0.193	0.171	0.166	1.01	1.16	0.954	0.583	0.788
NCI-H2347	1.03	0.97	0.978	1.03	0.898	0.328	0.3	0.283	0.332	0.319	0.429	0.424	0.438	0.418	0.403	0.988	1.17	0.975	0.756	0.781
NCI-H1563	1.37	1.42	1.2	1.12	1.03	0.477	0.406	0.508	0.421	0.428	0.894	0.745	0.669	0.84	0.712	0.721	0.779	0.661	0.545	0.549
NCI-H650	1.12	0.934	0.781	1.02	0.596	0.52	0.378	0.363	0.428	0.361	0.958	0.904	0.892	1.01	0.797	0.925	0.838	0.837	0.595	0.0014
NCI-H1666	0.954		0.76	0.954	0.831	0.841	0.804	0.813	0.742	0.652	0.84	0.911	0.81	0.973	0.909	0.699	0.507	0.296	0.25	0.236
NCI-H1792	0.531	0.494	0.591	0.627	0.627	0.858	0.76	0.809	0.83	0.535	1.07	1.09	0.852	0.771	0.614	0.942	0.911	0.874	0.865	0.89
PC-3 [JPC-3]	0.895	0.906	0.947	1.01	0.93		1.07	1	0.928	0.862	1.12	1.05	1.21	1.13	1.04	0.455	0.444	0.46	0.451	0.448
HARA	1.03	1.01	0.972	1.06	0.931	0.168	0.233	0.323	0.245	0.28	0.25	0.253	0.236	0.221	0.238	0.599	0.591	0.893	0.62	0.659
NCI-H2405	1.05	0.835	0.94	1.12	0.639	0.203	0.205	0.201	0.181	0.185	1.09	1.08	1.01	1.01	0.82		1.07	1.05	0.639	0.301
LOU-NH91	0.978	0.858	0.977	1.01	0.796	0.538	0.495	0.513	0.538	0.489	0.402	0.385	0.413	0.38	0.413		0.736	0.765	0.579	0.599
EPLC-272H	1.18	1.06	1.07	1.19	1.26	0.386	0.385	0.315	0.41	0.275	0.374	0.299	0.319	0.374	0.278	0.918	0.906	0.919	0.944	0.989
